What was measured:
Format in all cases: functional
[1] = system: Phytophthora infestans; experiment: Antifungal activity against Phytophthora infestans assessed as inhibition at 25 mg/L relative to control
[2] = system: Pyricularia oryzae; experiment: Antifungal activity against Magnaporthe oryzae assessed as inhibition at 0.92 mg/L relative to control
[3] = system: Pyricularia oryzae; experiment: Antifungal activity against Magnaporthe oryzae assessed as inhibition at 25 mg/L relative to control
[4] = system: Myzus persicae; experiment: Insecticidal activity against Myzus persicae (green peach aphid) at 600 mg/L relative to control
[5] = system: Leucania; experiment: Insecticidal activity against Leucania venalba at 600 mg/L relative to control
[6] = system: Blumeria graminis; experiment: Antifungal activity against Blumeria graminis assessed as inhibition at 1.56 mg/L relative to control
[7] = system: Blumeria graminis; experiment: Antifungal activity against Blumeria graminis assessed as inhibition at 6.25 mg/L relative to control
[8] = system: Pseudoperonospora cubensis; experiment: Antifungal activity against Pseudoperonospora cubensis assessed as inhibition at 6.25 mg/L relative to control
[9] = system: Blumeria graminis; experiment: Antifungal activity against Blumeria graminis assessed as inhibition at 400 mg/L relative to control
[10] = system: Pseudoperonospora cubensis; experiment: Antifungal activity against Pseudoperonospora cubensis assessed as inhibition at 25 mg/L relative to control
[11] = system: Phytophthora infestans; experiment: Antifungal activity against Phytophthora infestans assessed as inhibition at 0.92 mg/L relative to control
[12] = system: Pseudoperonospora cubensis; experiment: Antifungal activity against Pseudoperonospora cubensis assessed as inhibition at 400 mg/L relative to control

CO/N=C(/C(=O)OC)c1ccccc1COc1c(C)c(-c2cc(C)ccc2C)nn1C
inhibition at 25 µg/mL [1]: 100% | inhibition at 0.92 µg/mL [2]: 100% | inhibition at 25 µg/mL [3]: 100% | Activity [4]: 100% | Activity [5]: 100% | inhibition at 1.56 µg/mL [6]: 20% | inhibition at 6.25 µg/mL [7]: 40% | inhibition at 6.25 µg/mL [8]: 40% | inhibition at 400 µg/mL [9]: 100% | inhibition at 25 µg/mL [10]: 80% | inhibition at 0.92 µg/mL [11]: 60% | inhibition at 400 µg/mL [12]: 100%

Source: ChEMBL document CHEMBL3044728, “Synthesis and biological activity of new (E)-alpha-(Methoxyimino)benzeneacetate derivatives containing a substituted pyrazole ring” (2010)
